Data from patent US4169953A (priority 1977, dated 1979).
Values after ≈ are worked out from the molar mass of the structure shown. Structures can show the parent of a compound that is named as a salt.

What was measured:
[1] = in vitro; conditions: chicken, chick embryo fibroblasts
[2] = test system: Newcastle disease virus; assay: microbe, parasite or virus in culture; type: cell-based; conditions: avian paramyxovirus 1, in Gallus gallus

| Compound | MCC [1] | MIC [2] |
| --- | --- | --- |
| NC12CC3CC(CC(C3)C1)C2 [adamantylamine hydrochloride, reference compound] | 250 µg/mL | 250 µg/mL |
| O=C(OC1CCCC1)C12CCCC(C1)C1CCC2C1 (centres unmarked) | 200 µg/mL | 40 µg/mL (≈ 152 µM) |
| CCCCCCCCOC(=O)C12CCCC(C1)C1CCC2C1 (centres unmarked) [n-C8 H17] | 1000 µg/mL | 200 µg/mL (≈ 653 µM) |
| O=C(OC1CC2CC1C1CCCC21)C12CCCC(C1)C1CCC2C1 (centres unmarked) | 1000 µg/mL | 200 µg/mL (≈ 609 µM) |
| COC(=O)C12CCCC(C1)C1CCC2C1 (centres unmarked) [CH3] | 200 µg/mL | 200 µg/mL (≈ 960 µM) |
| CCCCOC(=O)C12CCCC(C1)C1CCC2C1 (centres unmarked) [n-C4 H9] | 200 µg/mL | 40 µg/mL (≈ 160 µM) |
| O=C(OC1CCCCC1)C12CCCC(C1)C1CCC2C1 (centres unmarked) | 200 µg/mL | 200 µg/mL (≈ 724 µM) |
